Experimental data: ChEMBL document CHEMBL3414509, “A FRET-based assay for screening SIRT6 modulators” (Eur J Med Chem, 2015)
Activity calls are given as the source filed them. The rule behind the calls is not given here. Peptide text beside a SMILES is read from it. * marks the point of attachment. X1 = CN(C)c1ccc(/N=N/c2ccc(C(=O)*)cc2)cc1; EDANS = O=S(=O)(O)c1cccc2c(NCCN*)cccc12; Myristoyl = CCCCCCCCCCCCCC(=O)*

Key:
[1] = target: NAD-dependent protein deacylase sirtuin-6 (Homo sapiens) (UniProt Q8N6T7); experiment: Inhibition of SIRT6 (unknown origin) at 300 uM using (DABCYL)ISGASE(MyK)DIVHSE(EDANS)G substrate in presence of NAD followed by 1 hr incubation with trypsin by FRET assay
NAD-dependent protein deacylase sirtuin-6 (Homo sapiens), sequence (Q8N6T7 whole entry): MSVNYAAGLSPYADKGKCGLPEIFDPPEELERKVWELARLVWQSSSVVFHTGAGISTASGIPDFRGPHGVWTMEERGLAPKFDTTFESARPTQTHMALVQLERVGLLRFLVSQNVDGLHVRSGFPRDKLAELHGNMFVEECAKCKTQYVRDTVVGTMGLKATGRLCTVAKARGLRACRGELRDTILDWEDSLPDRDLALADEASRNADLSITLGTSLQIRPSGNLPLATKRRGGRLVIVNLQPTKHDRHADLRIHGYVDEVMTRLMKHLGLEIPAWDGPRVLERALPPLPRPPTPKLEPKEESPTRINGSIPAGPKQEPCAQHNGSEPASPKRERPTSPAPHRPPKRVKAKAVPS

[2] = target: T1, NAD-dependent protein deacetylase sirtuin-1 (Homo sapiens) (UniProt Q96EB6); experiment: Inhibition of SIRT1 (unknown origin) at 300 uM using (DABCYL)ISGASE(AcK)DIVHSE(EDANS)G substrate in presence of NAD followed by 1 hr incubation with trypsin by FRET assay
T1 sequence (whole entry): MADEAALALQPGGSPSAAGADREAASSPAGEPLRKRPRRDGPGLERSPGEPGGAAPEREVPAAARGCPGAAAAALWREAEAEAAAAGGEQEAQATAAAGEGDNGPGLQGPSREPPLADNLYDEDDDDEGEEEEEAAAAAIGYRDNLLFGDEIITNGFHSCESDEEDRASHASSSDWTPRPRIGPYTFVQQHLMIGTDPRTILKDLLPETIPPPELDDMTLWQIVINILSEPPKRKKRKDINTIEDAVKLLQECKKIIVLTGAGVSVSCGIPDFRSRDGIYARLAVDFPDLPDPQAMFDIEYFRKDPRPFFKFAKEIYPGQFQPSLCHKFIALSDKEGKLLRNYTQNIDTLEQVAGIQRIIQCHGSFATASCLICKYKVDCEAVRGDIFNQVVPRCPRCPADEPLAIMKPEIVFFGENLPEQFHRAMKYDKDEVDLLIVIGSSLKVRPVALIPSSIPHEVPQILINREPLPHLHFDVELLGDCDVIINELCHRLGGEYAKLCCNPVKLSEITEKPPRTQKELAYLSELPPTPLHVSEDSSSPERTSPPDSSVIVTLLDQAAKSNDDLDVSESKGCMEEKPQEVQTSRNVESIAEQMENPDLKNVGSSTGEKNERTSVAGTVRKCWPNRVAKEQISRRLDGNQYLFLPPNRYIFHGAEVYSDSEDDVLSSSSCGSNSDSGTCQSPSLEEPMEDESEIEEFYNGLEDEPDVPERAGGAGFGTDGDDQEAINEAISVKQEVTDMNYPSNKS

Trypsin (Homo sapiens) = Trypsin (Homo sapiens) (UniProt P07477+P07478+P35030); experiment: Activity of trypsin (unknown origin) assessed as enzyme-mediated compound hydrolysis by measuring increase in fluorescence at 10 uM incubated for 1 hr at 37 degC relative to control; format: protein assay
[3] = target: NAD-dependent protein deacylase sirtuin-6 (Homo sapiens) (UniProt Q8N6T7); experiment: Activity of SIRT6 (unknown origin) assessed as enzyme-mediated compound hydrolysis at 10 uM incubated for 60 mins in presence of NAD followed by 1 hr incubation with trypsin

Compound	inhibition [1]	further results
CC(NC(=O)c1ccccc1/N=C/c1c(O)ccc2ccccc12)c1ccccc1 (configuration not stated)	< 50%	
N#C/C(=C\c1ccc(-c2cc(Cl)ccc2Cl)o1)C(=O)Nc1cccc2ncccc12	< 50%	
NC(=O)c1cccnc1	> 50%	inhibition [2]: Active
CC[C@H](C)[C@H](NC(=O)c1ccc(/N=N/c2ccc(N(C)C)cc2)cc1)C(=O)N[C@@H](CO)C(=O)NCC(=O)N[C@@H](C)C(=O)N[C@@H](CO)C(=O)N[C@@H](CCC(=O)O)C(=O)N[C@@H](CCCCN)C(=O)N[C@@H](CC(=O)O)C(=O)N[C@H](C(=O)N[C@H](C(=O)N[C@@H](Cc1cnc[nH]1)C(=O)N[C@@H](CO)C(=O)N[C@@H](CCC(=O)NCCNc1cccc2c(S(=O)(=O)O)cccc12)C(=O)NCC(=O)O)C(C)C)[C@@H](C)CC (HELM PEPTIDE1{[CN(C)c1ccc(/N=N/c2ccc(C(=O)[*:2])cc2)cc1].I.S.G.A.S.E.K.D.I.V.H.S.E.G}|CHEM1{[O=S(=O)(O)c1cccc2c(NCCN[*:1])cccc12]}$PEPTIDE1,CHEM1,14:R3-1:R1$$$V2.0)		fold change (FC) (Trypsin (Homo sapiens)): 15
CCCCCCCCCCCCCC(=O)NCCCC[C@H](NC(=O)[C@H](CCC(=O)O)NC(=O)[C@H](CO)NC(=O)[C@H](C)NC(=O)CNC(=O)[C@H](CO)NC(=O)[C@@H](NC(=O)c1ccc(/N=N/c2ccc(N(C)C)cc2)cc1)[C@@H](C)CC)C(=O)N[C@@H](CC(=O)O)C(=O)N[C@H](C(=O)N[C@H](C(=O)N[C@@H](Cc1cnc[nH]1)C(=O)N[C@@H](CO)C(=O)N[C@@H](CCC(=O)NCCNc1cccc2c(S(=O)(=O)O)cccc12)C(=O)NCC(=O)O)C(C)C)[C@@H](C)CC (X1-ISGASEK(Myristoyl)DIVHSE(EDANS)G-OH)		fold change (FC) [3]: 10
O=C1CCc2c(ccc3ccccc23)O1	< 50%	
